{"source": "paper PMC3712534", "about": "(The FEBS journal, 2013)", "key": {"PTP-PEST": {"molecular_target": "T1, PTP-PEST (Homo sapiens, UniProt Q05209)", "T1 sequence (Q05209 1-780)": "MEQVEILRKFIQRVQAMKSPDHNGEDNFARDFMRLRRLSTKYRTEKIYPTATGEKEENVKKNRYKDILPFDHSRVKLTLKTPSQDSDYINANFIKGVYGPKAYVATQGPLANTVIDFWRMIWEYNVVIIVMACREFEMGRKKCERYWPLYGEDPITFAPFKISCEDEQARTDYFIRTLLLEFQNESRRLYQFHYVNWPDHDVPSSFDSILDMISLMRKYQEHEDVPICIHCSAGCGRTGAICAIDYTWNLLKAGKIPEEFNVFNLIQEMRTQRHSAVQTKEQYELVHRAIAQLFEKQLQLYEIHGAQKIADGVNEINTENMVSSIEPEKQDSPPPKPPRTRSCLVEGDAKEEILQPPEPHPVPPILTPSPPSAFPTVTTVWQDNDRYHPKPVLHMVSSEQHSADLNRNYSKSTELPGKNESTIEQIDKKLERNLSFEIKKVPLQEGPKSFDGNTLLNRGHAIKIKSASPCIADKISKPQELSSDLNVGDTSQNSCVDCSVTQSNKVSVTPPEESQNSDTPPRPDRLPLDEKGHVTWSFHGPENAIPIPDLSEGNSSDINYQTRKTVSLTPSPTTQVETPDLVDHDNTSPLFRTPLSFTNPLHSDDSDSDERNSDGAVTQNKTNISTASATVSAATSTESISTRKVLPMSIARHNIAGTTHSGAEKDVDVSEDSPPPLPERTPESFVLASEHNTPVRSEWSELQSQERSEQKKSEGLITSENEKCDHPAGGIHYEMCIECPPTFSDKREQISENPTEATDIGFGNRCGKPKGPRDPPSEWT", "assay": "Inhibition of a panel of PTPs: PTP-PEST", "format": "biochemical"}, "IKK family members": {"system": "IKK family members", "details": "cited from earlier work"}, "TC-PTP": {"molecular_target": "T2, TC-PTP (Homo sapiens, UniProt P17706)", "T2 sequence (P17706 1-415)": "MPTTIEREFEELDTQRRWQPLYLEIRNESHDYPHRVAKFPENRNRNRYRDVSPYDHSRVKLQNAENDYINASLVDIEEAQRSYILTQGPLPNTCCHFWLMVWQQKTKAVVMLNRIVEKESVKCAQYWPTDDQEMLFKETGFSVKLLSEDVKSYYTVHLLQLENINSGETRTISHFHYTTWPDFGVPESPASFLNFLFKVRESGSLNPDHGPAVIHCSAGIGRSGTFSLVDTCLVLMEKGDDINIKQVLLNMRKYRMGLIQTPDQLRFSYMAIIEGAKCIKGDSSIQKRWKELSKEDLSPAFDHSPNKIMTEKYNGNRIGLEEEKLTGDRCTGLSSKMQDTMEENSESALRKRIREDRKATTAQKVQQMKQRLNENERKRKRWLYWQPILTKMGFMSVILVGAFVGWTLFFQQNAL", "assay": "Inhibition of a panel of PTPs: TC-PTP", "format": "biochemical"}, "PTP1B [1]": {"molecular_target": "T3, PTP1B (Homo sapiens, UniProt P18031)", "T3 sequence (P18031 1-405)": "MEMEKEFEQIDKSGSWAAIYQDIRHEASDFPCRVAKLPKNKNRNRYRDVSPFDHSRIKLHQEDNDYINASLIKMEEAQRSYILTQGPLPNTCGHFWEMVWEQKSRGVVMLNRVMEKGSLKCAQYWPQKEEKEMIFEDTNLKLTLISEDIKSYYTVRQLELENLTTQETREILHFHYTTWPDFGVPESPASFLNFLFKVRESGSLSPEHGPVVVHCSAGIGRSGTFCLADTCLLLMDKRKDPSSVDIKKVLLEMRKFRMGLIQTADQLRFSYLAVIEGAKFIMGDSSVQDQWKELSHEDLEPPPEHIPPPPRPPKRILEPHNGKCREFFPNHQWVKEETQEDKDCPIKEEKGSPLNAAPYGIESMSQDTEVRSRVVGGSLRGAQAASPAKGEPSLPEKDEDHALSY", "assay": "Inhibition of a panel of PTPs: PTP1B phosphatase activity, DiFMUP substrate", "format": "biochemical"}, "LAR": {"molecular_target": "LAR (Homo sapiens, UniProt P10586)", "sequence (P10586 30-1907, species assumed)": "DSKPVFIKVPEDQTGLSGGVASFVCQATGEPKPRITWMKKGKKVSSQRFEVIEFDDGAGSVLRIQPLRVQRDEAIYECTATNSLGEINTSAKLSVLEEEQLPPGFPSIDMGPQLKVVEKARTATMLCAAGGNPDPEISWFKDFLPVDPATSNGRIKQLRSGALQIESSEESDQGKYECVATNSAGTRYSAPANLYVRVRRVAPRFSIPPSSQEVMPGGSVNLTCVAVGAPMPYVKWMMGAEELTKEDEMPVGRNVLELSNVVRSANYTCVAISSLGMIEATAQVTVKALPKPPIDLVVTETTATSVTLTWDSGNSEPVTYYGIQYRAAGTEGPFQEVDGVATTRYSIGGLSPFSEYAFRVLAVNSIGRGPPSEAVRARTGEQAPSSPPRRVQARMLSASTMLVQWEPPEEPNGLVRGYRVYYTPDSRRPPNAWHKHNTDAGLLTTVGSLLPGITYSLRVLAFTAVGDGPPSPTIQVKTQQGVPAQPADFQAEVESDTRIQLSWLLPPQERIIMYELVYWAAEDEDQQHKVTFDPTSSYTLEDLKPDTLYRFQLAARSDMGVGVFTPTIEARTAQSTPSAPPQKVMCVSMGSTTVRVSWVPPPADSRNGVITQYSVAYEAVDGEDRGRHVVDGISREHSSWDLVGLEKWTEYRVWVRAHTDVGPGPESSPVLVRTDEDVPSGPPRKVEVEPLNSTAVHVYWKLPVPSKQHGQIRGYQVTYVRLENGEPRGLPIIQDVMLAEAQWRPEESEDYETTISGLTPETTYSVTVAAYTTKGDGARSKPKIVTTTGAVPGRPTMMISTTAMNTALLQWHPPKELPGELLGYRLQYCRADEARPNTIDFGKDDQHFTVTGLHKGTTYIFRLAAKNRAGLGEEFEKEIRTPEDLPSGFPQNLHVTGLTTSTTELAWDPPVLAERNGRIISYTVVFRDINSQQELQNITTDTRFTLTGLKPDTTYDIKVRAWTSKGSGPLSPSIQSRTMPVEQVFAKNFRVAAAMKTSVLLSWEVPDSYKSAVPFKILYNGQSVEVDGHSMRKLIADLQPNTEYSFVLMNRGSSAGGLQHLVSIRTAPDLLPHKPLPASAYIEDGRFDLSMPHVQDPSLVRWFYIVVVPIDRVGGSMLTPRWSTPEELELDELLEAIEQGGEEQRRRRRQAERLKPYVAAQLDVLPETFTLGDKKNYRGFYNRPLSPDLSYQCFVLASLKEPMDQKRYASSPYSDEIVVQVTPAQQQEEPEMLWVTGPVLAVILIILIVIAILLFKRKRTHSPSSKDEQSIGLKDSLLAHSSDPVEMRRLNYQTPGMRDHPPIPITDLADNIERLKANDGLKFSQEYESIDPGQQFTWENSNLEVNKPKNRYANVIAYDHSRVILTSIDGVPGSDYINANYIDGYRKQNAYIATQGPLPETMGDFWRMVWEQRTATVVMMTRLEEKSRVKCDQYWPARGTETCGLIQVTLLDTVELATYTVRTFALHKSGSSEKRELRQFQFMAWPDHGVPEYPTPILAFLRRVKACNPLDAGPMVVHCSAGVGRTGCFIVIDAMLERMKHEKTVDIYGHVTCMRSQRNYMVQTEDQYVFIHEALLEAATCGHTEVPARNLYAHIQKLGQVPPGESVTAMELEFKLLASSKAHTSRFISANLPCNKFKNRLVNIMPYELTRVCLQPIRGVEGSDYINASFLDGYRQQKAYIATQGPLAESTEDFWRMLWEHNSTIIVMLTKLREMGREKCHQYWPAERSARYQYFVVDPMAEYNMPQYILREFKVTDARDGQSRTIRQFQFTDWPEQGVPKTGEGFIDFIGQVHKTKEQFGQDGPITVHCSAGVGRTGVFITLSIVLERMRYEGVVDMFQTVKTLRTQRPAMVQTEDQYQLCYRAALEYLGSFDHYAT", "assay": "Inhibition of a panel of PTPs: LAR", "format": "biochemical"}, "DUSP4": {"molecular_target": "T4, DUSP4 (Homo sapiens, UniProt Q13115)", "T4 sequence (Q13115 1-394)": "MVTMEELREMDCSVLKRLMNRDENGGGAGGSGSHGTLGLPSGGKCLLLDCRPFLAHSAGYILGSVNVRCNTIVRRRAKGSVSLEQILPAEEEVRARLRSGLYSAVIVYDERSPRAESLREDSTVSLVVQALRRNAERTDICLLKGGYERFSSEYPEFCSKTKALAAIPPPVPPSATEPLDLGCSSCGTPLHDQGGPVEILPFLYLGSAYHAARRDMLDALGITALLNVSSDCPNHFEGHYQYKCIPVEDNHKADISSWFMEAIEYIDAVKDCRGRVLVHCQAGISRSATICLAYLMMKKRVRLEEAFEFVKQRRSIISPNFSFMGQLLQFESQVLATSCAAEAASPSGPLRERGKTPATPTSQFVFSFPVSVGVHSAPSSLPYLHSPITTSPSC", "assay": "Inhibition of a panel of PTPs: DUSP4", "format": "biochemical"}, "PTEN": {"molecular_target": "PTEN (Homo sapiens, UniProt P60484)", "sequence (P60484 whole entry, species assumed)": "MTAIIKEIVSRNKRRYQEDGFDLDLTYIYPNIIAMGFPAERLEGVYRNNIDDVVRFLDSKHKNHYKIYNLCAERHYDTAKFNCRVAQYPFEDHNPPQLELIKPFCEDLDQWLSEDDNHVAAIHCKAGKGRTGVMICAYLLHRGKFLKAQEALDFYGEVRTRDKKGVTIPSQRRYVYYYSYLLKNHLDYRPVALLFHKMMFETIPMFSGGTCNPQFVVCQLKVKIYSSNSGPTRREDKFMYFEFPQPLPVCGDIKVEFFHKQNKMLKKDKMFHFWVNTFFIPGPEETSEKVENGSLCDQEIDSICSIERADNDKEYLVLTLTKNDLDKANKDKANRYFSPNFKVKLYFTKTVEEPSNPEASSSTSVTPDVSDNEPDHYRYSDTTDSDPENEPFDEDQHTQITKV", "assay": "Inhibition of a panel of PTPs: PTEN", "format": "biochemical"}, "PTP1B [2]": {"molecular_target": "T3, PTP1B", "assay": "Michaelis-Menten analysis of PTP1B with DiFMUP without and with inhibitor", "format": "biochemical", "details": "read-out: drop of maximum rate (Vmax) in the presence of inhibitor"}, "PTP1B [3]": {"molecular_target": "T3, PTP1B", "assay": "Kinetics of time-dependent PTP1B inactivation, continuous DiFMUP assay", "format": "biochemical", "details": "catalase 0.5 μg/mL (1 unit per assay); PTP1B 5 nM; HEPES pH 7.0, 5 mM DTT"}, "DUSP10": {"molecular_target": "T5, DUSP10 (Homo sapiens, UniProt Q9Y6W6)", "T5 sequence (Q9Y6W6 1-482)": "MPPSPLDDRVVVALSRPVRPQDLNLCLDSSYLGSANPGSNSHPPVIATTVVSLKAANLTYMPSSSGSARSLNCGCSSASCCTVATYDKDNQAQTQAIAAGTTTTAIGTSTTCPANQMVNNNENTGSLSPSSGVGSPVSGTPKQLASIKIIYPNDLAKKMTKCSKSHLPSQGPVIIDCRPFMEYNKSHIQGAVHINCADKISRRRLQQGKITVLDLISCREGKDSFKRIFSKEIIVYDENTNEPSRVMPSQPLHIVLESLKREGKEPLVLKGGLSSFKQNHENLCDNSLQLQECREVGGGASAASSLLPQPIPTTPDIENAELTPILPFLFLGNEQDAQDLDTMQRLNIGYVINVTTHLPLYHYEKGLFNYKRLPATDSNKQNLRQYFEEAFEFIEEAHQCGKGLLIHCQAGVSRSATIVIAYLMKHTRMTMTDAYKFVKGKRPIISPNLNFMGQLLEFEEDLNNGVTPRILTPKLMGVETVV", "assay": "Inhibition of a panel of PTPs: DUSP10", "format": "biochemical"}, "DUSP16": {"molecular_target": "T6, DUSP16 (Homo sapiens, UniProt Q9BY84)", "T6 sequence (Q9BY84 1-665)": "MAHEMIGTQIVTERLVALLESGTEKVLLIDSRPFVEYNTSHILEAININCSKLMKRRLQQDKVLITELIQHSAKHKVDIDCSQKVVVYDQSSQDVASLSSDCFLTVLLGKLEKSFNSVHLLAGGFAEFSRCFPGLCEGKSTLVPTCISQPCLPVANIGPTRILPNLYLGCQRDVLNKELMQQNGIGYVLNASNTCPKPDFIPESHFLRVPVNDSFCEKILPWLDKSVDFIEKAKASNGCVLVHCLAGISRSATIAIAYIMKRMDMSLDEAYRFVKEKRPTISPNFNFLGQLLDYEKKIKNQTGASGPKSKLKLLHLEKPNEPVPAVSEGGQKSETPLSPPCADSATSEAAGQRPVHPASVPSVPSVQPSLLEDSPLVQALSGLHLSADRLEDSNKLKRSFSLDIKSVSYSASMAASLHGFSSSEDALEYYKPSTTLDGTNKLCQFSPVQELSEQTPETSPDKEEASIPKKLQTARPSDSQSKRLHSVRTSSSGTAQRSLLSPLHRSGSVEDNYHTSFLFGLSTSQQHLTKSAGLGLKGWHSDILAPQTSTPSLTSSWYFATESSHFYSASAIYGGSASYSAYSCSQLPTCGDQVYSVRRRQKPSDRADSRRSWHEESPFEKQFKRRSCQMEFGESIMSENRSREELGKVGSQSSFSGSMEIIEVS", "assay": "Inhibition of a panel of PTPs: DUSP16", "format": "biochemical"}, "DUSP14": {"molecular_target": "T7, DUSP14 (Homo sapiens, UniProt O95147)", "T7 sequence (O95147 1-198)": "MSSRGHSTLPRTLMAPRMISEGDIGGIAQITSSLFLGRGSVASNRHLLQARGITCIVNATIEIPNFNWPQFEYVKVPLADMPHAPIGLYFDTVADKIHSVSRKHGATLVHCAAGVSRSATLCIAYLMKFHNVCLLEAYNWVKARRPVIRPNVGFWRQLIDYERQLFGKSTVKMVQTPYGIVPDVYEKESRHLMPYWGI", "assay": "Inhibition of a panel of PTPs: DUSP14", "format": "biochemical"}, "PTP-alpha": {"molecular_target": "PTP-alpha (Homo sapiens, UniProt P18433)", "sequence (P18433 20-802)": "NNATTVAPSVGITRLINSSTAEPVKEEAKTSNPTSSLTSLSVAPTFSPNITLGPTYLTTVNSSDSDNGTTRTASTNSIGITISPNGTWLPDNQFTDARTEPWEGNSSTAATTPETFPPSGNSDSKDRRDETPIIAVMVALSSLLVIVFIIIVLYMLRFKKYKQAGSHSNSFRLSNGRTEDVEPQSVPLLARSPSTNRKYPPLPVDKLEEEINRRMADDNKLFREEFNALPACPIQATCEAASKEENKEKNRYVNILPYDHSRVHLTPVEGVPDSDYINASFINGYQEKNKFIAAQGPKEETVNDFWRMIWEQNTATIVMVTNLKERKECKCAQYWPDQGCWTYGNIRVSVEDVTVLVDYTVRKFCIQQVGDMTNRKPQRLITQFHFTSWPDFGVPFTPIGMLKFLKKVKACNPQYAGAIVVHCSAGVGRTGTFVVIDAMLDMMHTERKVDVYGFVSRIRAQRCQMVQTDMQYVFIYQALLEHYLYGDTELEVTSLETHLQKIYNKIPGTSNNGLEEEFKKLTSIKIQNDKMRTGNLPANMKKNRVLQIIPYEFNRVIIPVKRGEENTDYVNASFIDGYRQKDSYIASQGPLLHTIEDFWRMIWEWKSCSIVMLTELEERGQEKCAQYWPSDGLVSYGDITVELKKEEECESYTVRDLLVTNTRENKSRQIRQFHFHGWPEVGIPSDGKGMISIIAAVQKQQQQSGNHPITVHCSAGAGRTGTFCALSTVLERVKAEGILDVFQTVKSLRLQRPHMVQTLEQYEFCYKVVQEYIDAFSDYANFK", "assay": "Inhibition of a panel of PTPs: PTP-alpha", "format": "biochemical"}, "PTP1B [4]": {"molecular_target": "T3, PTP1B", "details": "cited from earlier work"}, "RAW 264 macrophages": {"system": "RAW 264 macrophages", "assay": "Anti-phosphotyrosine", "format": "cell-based", "details": "1 mM, 30 minutes; in the presence and absence of LPS"}}, "data": [{"smiles": "Cc1ccc(S(=O)(=O)/C=C/C#N)cc1", "note": "[BAY 11-7082]", "values": [{"measurement": "Ki", "setting": "PTP-PEST", "result": 0.9, "unit": "µM"}, {"measurement": "inhibition of IKK family members in vitro", "setting": "IKK family members", "result": "does not inhibit"}, {"measurement": "Ki", "setting": "TC-PTP", "result": 1.5, "unit": "µM"}, {"measurement": "Ki", "setting": "PTP1B [1]", "result": 1, "unit": "µM"}, {"measurement": "Ki", "setting": "LAR", "result": 2.5, "unit": "µM"}, {"measurement": "Ki", "setting": "DUSP4", "result": 140, "unit": "µM"}, {"measurement": "Ki", "setting": "PTEN", "result": 100, "unit": "µM"}, {"measurement": "inhibition at 2 µM", "setting": "PTP1B [2]", "result": "~50", "unit": "%"}, {"measurement": "rate of inactivation of PTP1B in the absence and presence of catalase", "setting": "PTP1B [3]", "result": "the same"}, {"measurement": "Ki", "setting": "DUSP10", "result": 150, "unit": "µM"}, {"measurement": "Ki", "setting": "DUSP16", "result": 125, "unit": "µM"}, {"measurement": "Ki", "setting": "DUSP14", "result": 180, "unit": "µM"}, {"measurement": "Ki", "setting": "PTP-alpha", "result": 2.3, "unit": "µM"}]}, {"smiles": "CC(C)(C)c1ccc(S(=O)(=O)/C=C/C#N)cc1", "note": "[BAY 11-7085]", "values": [{"measurement": "Ki", "setting": "PTP-PEST", "result": 40, "unit": "µM"}, {"measurement": "Ki", "setting": "TC-PTP", "result": 39, "unit": "µM"}, {"measurement": "Ki", "setting": "PTP1B [1]", "result": 36, "unit": "µM"}, {"measurement": "Ki", "setting": "LAR", "result": 57, "unit": "µM"}, {"measurement": "Ki", "setting": "DUSP4", "result": 160, "unit": "µM"}, {"measurement": "Ki", "setting": "PTEN", "result": 200, "unit": "µM"}, {"measurement": "Ki", "setting": "DUSP10", "result": 180, "unit": "µM"}, {"measurement": "Ki", "setting": "DUSP16", "result": 205, "unit": "µM"}, {"measurement": "Ki", "setting": "DUSP14", "result": 210, "unit": "µM"}, {"measurement": "Ki", "setting": "PTP-alpha", "result": 45, "unit": "µM"}]}, {"smiles": "OO", "note": "[H2O2, hydrogen peroxide]", "values": [{"measurement": "rate of oxidation of the enzyme", "setting": "PTP1B [4]", "result": 10, "unit": "M⁻¹ s⁻¹"}]}, {"smiles": "[Na+].[Na+].[Na+].[O]=[V]([O-])([O-])[O-]", "note": "[sodium orthovanadate]", "values": [{"measurement": "extent of tyrosine phosphorylation (anti-pTyr immunoblot)", "setting": "RAW 264 macrophages", "result": "enhanced"}]}]}
